US10596172B2 (Celgene CAR LLC, priority 2008, dated 2020)

How the values were obtained:
BTK [1] = molecular target: T1, BTK (Homo sapiens (Human), UniProt Q06187); test: Mass spectrometry for BTK (covalent modification of intact protein); type: binding; conditions: 1 hr, 10x fold excess of compound
Description: Intact BTK was incubated for 1 hr at a 10× fold excess of I-7 to protein. Aliquots (2 μl) of the samples were diluted with 10 μl of 0.1% TFA prior to micro C4 ZipTipping directly onto the MALDI target using Sinapinic acid as the desorption matrix (10 mg/ml in 0.1% TFA:Acetonitrile 20:80).

Human naïve B cells = test: Human primary B cell proliferation assay; type: cell-based; conditions: 5 μg/ml α-IgM 72 hours, 3H-thymidine incorporation
Description: Human naïve B cells were purified from 100 mL whole blood using a MACS purification kit designed to isolate CD19+, IgD+ cells by negative selection. Purified naïve B cells were resuspended in RPMI complete and stimulated with 5 μg/ml α-IgM for 72 hours. ^3H-Thymidine was included in the culture media for the final 16 h, cells were harvested and ^3H incorporation measured. Inhibition of B cell proliferation correlates with inhibition of BTK substrate phosphorylation after α-IgM stimulation.

TEC kinase = TEC kinase (Homo sapiens (Human), UniProt P42680); test: Mass spectrometry for TEC kinase (tryptic digest); type: binding; conditions: 3 hrs at 10x excess
Sequence of TEC kinase (P42680 whole entry): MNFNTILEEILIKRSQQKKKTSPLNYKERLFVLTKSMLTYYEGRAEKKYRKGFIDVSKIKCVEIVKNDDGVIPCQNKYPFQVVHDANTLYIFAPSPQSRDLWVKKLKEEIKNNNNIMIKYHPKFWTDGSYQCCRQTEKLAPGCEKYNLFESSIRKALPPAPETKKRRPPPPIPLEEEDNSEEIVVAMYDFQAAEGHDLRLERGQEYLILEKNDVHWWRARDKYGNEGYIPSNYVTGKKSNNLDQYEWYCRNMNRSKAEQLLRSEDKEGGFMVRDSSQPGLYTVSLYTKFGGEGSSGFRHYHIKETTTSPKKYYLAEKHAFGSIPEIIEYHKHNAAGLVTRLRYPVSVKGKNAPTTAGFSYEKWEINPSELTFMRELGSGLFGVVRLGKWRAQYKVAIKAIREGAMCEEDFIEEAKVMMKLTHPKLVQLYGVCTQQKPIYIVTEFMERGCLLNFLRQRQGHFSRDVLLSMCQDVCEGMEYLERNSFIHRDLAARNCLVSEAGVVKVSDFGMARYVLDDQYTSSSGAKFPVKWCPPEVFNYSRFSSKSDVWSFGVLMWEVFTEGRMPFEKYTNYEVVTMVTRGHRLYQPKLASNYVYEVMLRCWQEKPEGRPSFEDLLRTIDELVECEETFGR
Description: (§1) TEC kinase (45 pmols; Invitrogen) was incubated with (I-2) (450 pmols) for 3 hrs at 10× excess prior to tryptic digestion. Iodoacetamide was used as the alkylating agent after compound incubation. […] For tryptic digests a 5 ul aliquot (7.5 pmols) was diluted with 15 ul of 0.1% TFA prior to micro C18 Zip Tipping directly onto the MALDI target using alpha cyano-4-hydroxy cinnamic acid as the matrix (5 mg/ml in 0.1% TFA:Acetonitrile 50:50).
As depicted in FIG. 6, the expected peptide ([…]) to be modified was immediately evident after reaction with I-2 (MI mass of 359.17 Da) at MH+ of 1294.72. The peptide was also quite evident in the control sample as modified by Iodacetamide at MH+ of 992.56. […] There was no evidence of other modified peptides.
For tryptic digests the instrument was set in Reflectron mode with a pulsed extraction setting of 2200. Calibration was done using the Laser Biolabs Pep Mix standard ([…], 1296.69, 1672.92, 2093.09, 2465.20). For CID/PSD analysis the peptide was selected using cursors to set ion gate timing and fragmentation occurred at a laser power about 20% higher and He was used as the collision gas for CID. Calibration for fragments was done using the P14R fragmentation calibration for the Curved field Reflectron.
as §1, with “(I-4)” for “(I-2)”
As depicted in FIG. 7, the expected peptide ([…]) to be modified was immediately evident at MH+ of 1355.72. This is the mass to be expected when compound I-4, with an adduct mass of 420.21, is added to the peptide mass of 935.51. The peptide was also quite evident in the control sample as modified by Iodacetamide at MH^+ of 992.56. […] There was no evidence of other modified peptides. […]

BTK [2] = molecular target: T1, BTK; test: BTK occupancy in Ramos cells with I-7 and probe I-215 using streptavidin beads; type: cell-based; conditions: 1 hour, higher concentrations of I-7 (above 10 nM)
Description: Ramos cells were incubated with 0.1, 0.05, 0.01, or 0.001 μM I-7 in serum free media for 1 hour at 37° C. The cells were pelleted by centrifugation and lysed in Cell Extraction buffer (Invitrogen) for 10 minutes on ice, centrifuged (10 minutes at 14,000 rpm) and the supernatant was collected. Cell lysates were incubated with 1 μM I-215 for 1 hour at room temperature, then incubated with streptavidin-coupled agarose beads (ThermoFisher) overnight at 4° C. The beads were washed three times with lysis buffer and the bound proteins were boiled off the beads at 95° C. for 5 minutes in 4×LDS Sample Buffer. The amount of BTK associated with the probe I-215 was assessed by BTK western blot. All values were normalized to the DMSO-treated sample which is set to 100%.

BTK [3] = molecular target: T1, BTK; test: Washout experiment with I-7 and probe compound I-215 in Ramos cells; type: cell-based; conditions: 0.1 μM, 1 hour
Description: Ramos cells were incubated with 0.1 μM I-7 or a reversible BTK inhibitor control compound in serum free media for 1 hour at 37° C. The cells were then washed in compound-free media and lysed 0, 4, 6, or 8 hours after compound removal. Cell lysates were incubated with 1 μM I-215 for 1 hour at room temperature, then overnight at 4° C. with streptavidin-coupled agarose beads. Protein was boiled off the beads and BTK association was assessed by western blot. […] In contrast, with the reversible inhibitor control, 45% of BTK protein is unbound and available to the probe at 0 hours and by 4 hours 100% of BTK protein is unbound and available to bind the probe. All samples were normalized to the DMSO-treated cells harvested at 0 hours.

T1 sequence (Q06187 whole entry): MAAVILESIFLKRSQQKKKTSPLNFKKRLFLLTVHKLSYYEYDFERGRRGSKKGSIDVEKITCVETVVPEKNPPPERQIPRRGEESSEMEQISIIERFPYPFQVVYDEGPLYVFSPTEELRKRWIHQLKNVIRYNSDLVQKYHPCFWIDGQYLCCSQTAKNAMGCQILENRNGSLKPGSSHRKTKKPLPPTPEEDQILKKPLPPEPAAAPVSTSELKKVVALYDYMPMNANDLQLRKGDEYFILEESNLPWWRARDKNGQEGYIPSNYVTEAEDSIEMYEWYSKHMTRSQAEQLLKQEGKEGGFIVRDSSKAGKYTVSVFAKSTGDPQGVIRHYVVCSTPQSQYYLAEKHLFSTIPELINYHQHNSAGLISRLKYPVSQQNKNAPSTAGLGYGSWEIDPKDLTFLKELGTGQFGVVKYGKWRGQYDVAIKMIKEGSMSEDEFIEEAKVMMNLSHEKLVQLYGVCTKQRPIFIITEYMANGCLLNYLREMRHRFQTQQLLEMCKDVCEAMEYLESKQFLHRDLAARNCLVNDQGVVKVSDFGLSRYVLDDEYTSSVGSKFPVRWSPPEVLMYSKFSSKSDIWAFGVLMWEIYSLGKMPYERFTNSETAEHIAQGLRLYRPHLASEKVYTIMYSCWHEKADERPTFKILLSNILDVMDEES

covalent modification of BTK by mass spectrometry (BTK [1]) | covalent modification of TEC kinase peptide GCLLNFLR (Cys449) by mass spectrometry (TEC kinase) | BTK occupancy (BTK available to probe I-215) (BTK [2]) | time BTK protein remains occupied after compound removal (BTK [3]) | Compound | EC50 (Human naïve B cells) [nM]
complete modification | reaction was complete | fully occupied | over 8 hours | C=CC(=O)Nc1cccc(Nc2nc(Nc3ccccc3)ncc2C)c1 [Compound I-7, N-(3-(5-methyl-2-(phenylamino)pyrimidin-4-ylamino)phenyl)acrylamide] | 1 to 10
– | reaction was complete | – | – | Cc1cccc(Nc2nc(Nc3cccc(NC(=O)/C=C/CN(C)C)c3)ncc2F)c1 [Compound I-4, (E)-4-(dimethylamino)-N-(3-(5-fluoro-4-(m-tolylamino)pyrimidin-2-ylamino)phenyl)but-2-enamide] | –
